Laboratory results as given in ChEMBL document CHEMBL1201862, “PubChem BioAssay data set” (2004).
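These data come from cells grown in 96-well plates and exposed to compound for 48 hours at five concentrations. GI50 marks 50% less growth.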 Calls of active or inactive are those of the source. Rule as the data show it: active = GI50 up to about 1.1 µM and inactive = higher.

Columns and labels:
Assay in all cases: NCI anticancer screen, dose series, 48 h
BT-549 = test system: BT-549
DU-145 = test system: DU-145
MDA-MB-231 = test system: MDA-MB-231
MDA-MB-435 = test system: MDA-MB-435
PC-3 = test system: PC-3
T47D = test system: T47D
RXF 631 = test system: RXF 631

Measured: GI50

COC(=O)C1=C(OC(=O)/C(=C/c2ccc(Cl)cc2)c2ccc(Cl)cc2)C(C(=O)OC)[C@]2(O)[C@@H](C(=O)OC)[C@H]1C[C@@H](c1ccccc1)[C@@H]2C(=O)OC (some centres not stated)
inactive: BT-549 90.4 µM | DU-145 > 100 µM | MDA-MB-231 50.6 µM | MDA-MB-435 > 100 µM | PC-3 62.5 µM | T47D > 100 µM

O=C1c2cccc3c2C(=O)c2c(cccc21)OCCOCCOCCOCCO3
inactive: RXF 631 91.6 µM
